According to PubChem BioAssay (NCI):
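Values below derive from 48-hour exposures of cells grown in 96-well plates, with endpoints linearly interpolated between the two concentrations bracketing the appropriate inhibition level. TGI: concentration producing complete growth inhibition.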

The compounds below were run on UACC-62 melanoma (assay: DTP human tumour cell line panel, 48 h).

Point of comparison: `COc1cc([C@@H]2c3cc4c(cc3[C@@H](NCc3cccc(C#N)c3)C3COC(=O)[C@@H]32)OCO4)cc(OC)c1O` (some centres not stated), TGI 2.93 µM. Against it:
- O=C1OC(=O)C([Se]c2ccccc2)=C1[Se]c1ccccc1 — higher, > 100 µM
- CCOP(=O)(O)C(Nc1ccc(N=Nc2ccccc2)cc1)c1cccc(C(Nc2ccc(N=Nc3ccccc3)cc2)P(=O)(O)OCC)c1 (configuration not stated) — 27-fold higher, 78.1 µM
- CCCCCCCCC(O)c1ccc(/C=C\C(O)CCCC(=O)O)s1 (configuration not stated) — higher, > 100 µM
- N#CCc1cccc(CC#N)c1Br — higher, > 100 µM

Each compound was assayed on 786-0 renal (assay: DTP human tumour cell line panel, 48 h).

Point of comparison: `COc1cc([C@@H]2c3cc4c(cc3[C@@H](NCc3cccc(C#N)c3)C3COC(=O)[C@@H]32)OCO4)cc(OC)c1O` (some centres not stated), TGI 2.62 µM. Against it:
- O=C1OC(=O)C([Se]c2ccccc2)=C1[Se]c1ccccc1 — higher, > 100 µM
- CCOP(=O)(O)C(Nc1ccc(N=Nc2ccccc2)cc1)c1cccc(C(Nc2ccc(N=Nc3ccccc3)cc2)P(=O)(O)OCC)c1 (configuration not stated) — higher, > 100 µM
- CCCCCCCCC(O)c1ccc(/C=C\C(O)CCCC(=O)O)s1 (configuration not stated) — higher, > 100 µM
- N#CCc1cccc(CC#N)c1Br — higher, > 100 µM
- COC(=O)c1c(O)ccc2c1c1c(n2Cc2cc(OC)cc(OC)c2)C(=O)c2ccccc2C1=O — 8.2-fold higher, 21.4 µM

The compounds below were run on SR leukemia (assay: DTP human tumour cell line panel, 48 h).

`CCCCCCCCCCCCCCCc1nc(=S)[nH][nH]1` and `CCCCCCCCC(O)c1ccc(/C=C\C(O)CCCC(=O)O)s1` (configuration not stated) cannot be ordered by TGI: > 100 µM for the first, > 100 µM for the second.

`O=C1OC(=O)C([Se]c2ccccc2)=C1[Se]c1ccccc1` and `CCOP(=O)(O)C(Nc1ccc(N=Nc2ccccc2)cc1)c1cccc(C(Nc2ccc(N=Nc3ccccc3)cc2)P(=O)(O)OCC)c1` (configuration not stated) cannot be ordered by TGI: > 100 µM for the first, > 100 µM for the second.

`N#CCc1cccc(CC#N)c1Br` and `COC(=O)c1c(O)ccc2c1c1c(n2Cc2cc(OC)cc(OC)c2)C(=O)c2ccccc2C1=O` cannot be ordered by TGI: > 100 µM for the first, > 100 µM for the second.

These compounds were tested on IGROV1 ovarian (assay: DTP human tumour cell line panel, 48 h).

Point of comparison: `COC(=O)c1c(O)ccc2c1c1c(n2Cc2cc(OC)cc(OC)c2)C(=O)c2ccccc2C1=O`, TGI 22 µM. Against it:
- O=C1OC(=O)C([Se]c2ccccc2)=C1[Se]c1ccccc1 — higher, > 100 µM
- CCOP(=O)(O)C(Nc1ccc(N=Nc2ccccc2)cc1)c1cccc(C(Nc2ccc(N=Nc3ccccc3)cc2)P(=O)(O)OCC)c1 (configuration not stated) — higher, > 100 µM
- CCCCCCCCC(O)c1ccc(/C=C\C(O)CCCC(=O)O)s1 (configuration not stated) — higher, > 100 µM
- N#CCc1cccc(CC#N)c1Br — higher, > 100 µM
- COc1cc([C@@H]2c3cc4c(cc3[C@@H](NCc3cccc(C#N)c3)C3COC(=O)[C@@H]32)OCO4)cc(OC)c1O (some centres not stated) — within 1.5-fold, 15.2 µM

The compounds below were run on KM12 colon (assay: DTP human tumour cell line panel, 48 h).

Point of comparison: `COc1cc([C@@H]2c3cc4c(cc3[C@@H](NCc3cccc(C#N)c3)C3COC(=O)[C@@H]32)OCO4)cc(OC)c1O` (some centres not stated), TGI 4.66 µM. Against it:
- CCCCCCCCCCCCCCCc1nc(=S)[nH][nH]1 — higher, > 100 µM
- CCOP(=O)(O)C(Nc1ccc(N=Nc2ccccc2)cc1)c1cccc(C(Nc2ccc(N=Nc3ccccc3)cc2)P(=O)(O)OCC)c1 (configuration not stated) — higher, > 100 µM
- CCCCCCCCC(O)c1ccc(/C=C\C(O)CCCC(=O)O)s1 (configuration not stated) — higher, > 100 µM
- N#CCc1cccc(CC#N)c1Br — higher, > 100 µM
- COC(=O)c1c(O)ccc2c1c1c(n2Cc2cc(OC)cc(OC)c2)C(=O)c2ccccc2C1=O — 2.9-fold higher, 13.6 µM

What follows are compounds tested on DMS 114 small cell lung (assay: DTP human tumour cell line panel, 48 h).

Point of comparison: `COc1cc([C@@H]2c3cc4c(cc3[C@@H](NCc3cccc(C#N)c3)C3COC(=O)[C@@H]32)OCO4)cc(OC)c1O` (some centres not stated), TGI 9.19 µM. Against it:
- CCCCCCCCCCCCCCCc1nc(=S)[nH][nH]1 — higher, > 100 µM
- O=C1OC(=O)C([Se]c2ccccc2)=C1[Se]c1ccccc1 — higher, > 100 µM
- CCCCCCCCC(O)c1ccc(/C=C\C(O)CCCC(=O)O)s1 (configuration not stated) — higher, > 100 µM
- N#CCc1cccc(CC#N)c1Br — higher, > 100 µM

Each compound was assayed on NCI-H226 lung (assay: DTP human tumour cell line panel, 48 h).

Point of comparison: `COc1cc([C@@H]2c3cc4c(cc3[C@@H](NCc3cccc(C#N)c3)C3COC(=O)[C@@H]32)OCO4)cc(OC)c1O` (some centres not stated), TGI 2.4 µM. Against it:
- O=C1OC(=O)C([Se]c2ccccc2)=C1[Se]c1ccccc1 — higher, > 100 µM
- CCOP(=O)(O)C(Nc1ccc(N=Nc2ccccc2)cc1)c1cccc(C(Nc2ccc(N=Nc3ccccc3)cc2)P(=O)(O)OCC)c1 (configuration not stated) — higher, > 100 µM
- CCCCCCCCC(O)c1ccc(/C=C\C(O)CCCC(=O)O)s1 (configuration not stated) — higher, > 100 µM
- N#CCc1cccc(CC#N)c1Br — higher, > 100 µM
- COC(=O)c1c(O)ccc2c1c1c(n2Cc2cc(OC)cc(OC)c2)C(=O)c2ccccc2C1=O — 16-fold higher, 39.3 µM

The compounds below were run on CAKI-1 renal (assay: DTP human tumour cell line panel, 48 h).

Point of comparison: `COc1cc([C@@H]2c3cc4c(cc3[C@@H](NCc3cccc(C#N)c3)C3COC(=O)[C@@H]32)OCO4)cc(OC)c1O` (some centres not stated), TGI 20.8 µM. Against it:
- O=C1OC(=O)C([Se]c2ccccc2)=C1[Se]c1ccccc1 — higher, > 100 µM
- CCOP(=O)(O)C(Nc1ccc(N=Nc2ccccc2)cc1)c1cccc(C(Nc2ccc(N=Nc3ccccc3)cc2)P(=O)(O)OCC)c1 (configuration not stated) — higher, > 100 µM
- N#CCc1cccc(CC#N)c1Br — higher, > 100 µM
- COC(=O)c1c(O)ccc2c1c1c(n2Cc2cc(OC)cc(OC)c2)C(=O)c2ccccc2C1=O — 2.7-fold higher, 56.7 µM

What follows are compounds tested on HOP-62 NSCLC (assay: DTP human tumour cell line panel, 48 h).

`CCCCCCCCCCCCCCCc1nc(=S)[nH][nH]1` and `O=C1OC(=O)C([Se]c2ccccc2)=C1[Se]c1ccccc1` cannot be ordered by TGI: > 100 µM for the first, > 100 µM for the second.
